This passage reports Km results from publication PMC11047392, “A Physiological Approach to Explore How Thioredoxin–Glutathione Reductase (TGR) and Peroxiredoxin (Prx) Eliminate H2O2 in Cysticerci of Taenia” (Antioxidants, 2024).

For this experiment, the target named is T1, TsPrx1 (Taenia solium, UniProt Q2TP88).
T1 construct: recombinant, pET-23a(+) NdeI/XhoI, E. coli BL21 Codon Plus, His tag (printed as amino terminal), 195 residues, ~22 kDa
As to the kind of experiment: NADPH oxidation at […] nm, coupled assay with TsTrx and TcTGR. It counts as biochemical. Conditions: 150 μM NADPH, 60 μM TsTrx, 11.2 nM TcTGR, 1.25 μM TsPrx1, pH 7.8, 25 °C.

T1 sequence (Q2TP88 entry or part of it): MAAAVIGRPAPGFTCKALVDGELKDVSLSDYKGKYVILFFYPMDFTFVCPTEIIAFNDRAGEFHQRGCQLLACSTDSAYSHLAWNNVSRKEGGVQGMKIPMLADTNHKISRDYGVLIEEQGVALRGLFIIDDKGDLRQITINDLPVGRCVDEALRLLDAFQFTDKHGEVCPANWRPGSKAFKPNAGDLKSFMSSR

For orientation: Km means the concentration of substrate that gives half-maximal velocity. `CC(C)(C)OO` [t-butyl hydroperoxide]: the Km came to 18.1 µM.
